Measured values as given in patent US20070243154A1, “Solubilization of acid ingredients” (L'OREAL, priority 2006, published 2007).

Tests used:
[1] = Solubility of salicylic acid in organic compounds liquid at room temperature; format: physicochemical; conditions: dissolved at 60° C., cooled to room temperature, left 2 hours
Description: In this example, the solubility of salicylic acid in different liquid materials was compared with mineral oil.
Preparation of Highly Concentrated Salicylic Acid Solutions
Salicylic acid was mixed with various organic compounds, liquid at room temperature, and heated to 60° C. The solution was stirred until all the salicylic acid was dissolved and then cooled to room temperature with stirring. The solution was left undisturbed for 2 hours and observed for crystallization.
The results are expressed by weight of the acid in the dissolving organic compound liquid at room temperature.

[2] = cited from earlier work

solubility of salicylic acid ([1]; in C12-C15 alkyl benzoate): 4.8% w/w | solubility of salicylic acid ([1]; in glyceryl isostearate): 8.25% w/w | solubility of salicylic acid ([1]; in isostearic acid): 6.5% w/w | solubility of salicylic acid ([1]; in isostearyl alcohol): 9.9% w/w | solubility of salicylic acid ([1]; in oleic acid, observed for crystallization, by weight of acid in the solvent): 5.6% w/w | solubility of salicylic acid ([1]; in propylene glycol isostearate): 9.9% w/w
SMILES: O=C(O)c1ccccc1O [Salicylic acid, 2-hydroxybenzoic acid]
volume of alcohol in which 1 g dissolves ([2]; ethanol, 1 g dissolves in the stated volume): 2.7 mL | volume of ether in which 1 g dissolves ([2]; ether, 1 g in the stated volume): 3 mL | volume of water in which 1 g dissolves ([2]; water, 1 g in the stated volume): 460 mL
